Source: article PMC8667925, “New 1,2,4-oxadiazole derivatives with positive mGlu4 receptor modulation activity and antipsychotic-like properties” (Journal of Enzyme Inhibition and Medicinal Chemistry, 2021)
Entries after “also recorded” stand apart in the source; their conditions may differ.

How the values were obtained:
mGlu4 receptor = molecular target: T1, mGlu4 receptor (Homo sapiens, UniProt Q14833); test: forskolin-induced cAMP assay, agonist mode, T-REx 293 cells; format: cell-based
T1 construct: mGlu4 receptor NM_000841, mGlu7 receptor NM_000844.2, and mGlu8 receptor NM_000845; expressed in transfected cells; host or cells: T-REx 293
Experimental: (§1) The compounds were tested in the agonist, PAM (in the presence of EC20 concentration of L-Glu) or NAM (with EC80 of L-Glu) modes of forskolin-induced cAMP using T-REx 293 cells expressing the protein of a given receptor.
(§2) Determination of the intracellular cAMP through a homogeneous time-resolved fluorescence (HTRF) cAMP dynamic 2 kit from Cisbio (Codolet, France) was described previously by Chruścicka et al.[91]. Briefly, cells were grown in DMEM supplemented with 10% foetal bovine serum (FBS) (tetracycline free). Forty-eight hours before the experiments, mGlu receptor expression was induced by the addition of 0.75 µg/mL tetracycline. Twenty hours before the experiment, FBS and L-Glu were removed from the medium. Thereafter, the cells were scraped and centrifuged. A cell pellet was suspended in Hanks-HEPES (130 mM NaCl, 5.4 mM KCl, 1.8 mM CaCl2, 0.8 mM MgSO4, 0.9 mM NaH2PO4, 20 mM HEPES, and 3.25 mM glucose; pH 7.4). Then, the cell suspension was incubated in the presence of 10 µM forskolin (or 3 µM forskolin for mGlu7 receptor), the agonist L-glutamate and a compound for 5 min. Next, 10 µl of the cell suspension was mixed with 5 µl of cAMP-d2 conjugate and 5 µL of anti-cAMP cryptate conjugate. After 1 h of incubation at rt, the fluorescence at 620 nm and 665 nm was read (Tecan Infinite M1000). The results were calculated as the 665 nm/620 nm ratio multiplied by 10^4. Each sample was prepared in triplicate.

Albino Swiss mice = test: modified stress-induced hyperthermia (SIH) in singly housed mice; format: in vivo
Experimental: The compounds were dissolved in a small amount of 100% EtOH and then adjusted with 20% cyclodextrin, and the pH was adjusted to 6.0. The investigated compounds were administered intraperitoneally (i.p.) 60 min before the behavioural test. Control drugs i.e. diazepam, clozapine and imipramine (Sigma–Aldrich, St. Louis, USA), were administered i.p. 60 min before the behavioural test. Cyclodextrin (20%) was used as a vehicle. All solutions were prepared immediately prior to the experiments and were administered at a constant volume of 10 ml/kg.
The procedure for modified stress-induced hyperthermia was adapted from Van der Heyden[93] and based on the procedure introduced by Borsini[94]. Each experimental group consisted of eight to ten animals. The animals were housed individually in a 26 × 21 × 14 cm Macolon cage 24 h before testing. For this assay, the body temperature was measured for each mouse at t = 0 min (T1) and t = +15 min (T2). Albino Swiss mice were placed into a new cage immediately following T1, with the difference in temperature (T2−T1) used as the measure of stress-induced hyperthermia. […] A comparison between T1 in vehicle-treated mice and those administered the test compound was used to determine whether the agent affects body temperature alone. Diazepam (5 mg/kg) was used as the positive control. The rectal temperature was measured to the nearest 0.1 °C with a Physitemp Theralert thermometer, TH-5, Clifton NJ, USA, with the temperature sensor for mice, Type T, Copper-Constantan Thermocouple, Braintree Scientific Inc. The lubricated thermistor probe (2 mm diameter) was inserted 20 mm into the rectum. The mouse was held at the base of the tail during this determination, and the thermistor probe was left in place until a constant reading was obtained for 15 s. The effects of the investigated compounds on the SIH response were investigated after administration of the compounds at doses of 5, 10 and 20 mg/kg.

mGlu8 receptor = molecular target: T2, mGlu8 receptor (Homo sapiens, UniProt O00222); test: cAMP accumulation assay in cells expressing mGlu8 receptor (agonist, PAM, NAM modes); format: cell-based; details: 10 µM, agonist mode
T2 construct: mGlu4 receptor NM_000841, mGlu7 receptor NM_000844.2, and mGlu8 receptor NM_000845; expressed in transfected cells; host or cells: T-REx 293
Experimental: as §1
Figure 4. The activity of compounds 34, 37, 49, 52, 60, 62 and reference drugs MMPIP (a selective NAM of mGlu7 receptor) and AZ12216052 (a PAM of mGlu8 receptor) tested at a concentration of 10 μM in the cAMP accumulation assay in cells expressing mGlu7 and mGlu8 receptors. The percent activity refers to two extreme FRET signals: 0% corresponds to forskolin treatment alone and 100% to maximal FRET signal for the control cells (without any treatment). A/D – agonistic activity; B/E – PAM activity measured in the presence of L-Glu at the EC20 concentration (0.1 mM for mGlu7 receptor, and 1 μM for mGlu8 receptor); C/F – NAM activity measured in the presence of L-Glu at the EC80 concentration (1 mM for mGlu7 receptor, 10 μM for Glu8 receptor).
as §2

[1] = 5 mg/kg i.p., 60 min before test
[2] = 10 mg/kg i.p., 60 min before test
[3] = 20 mg/kg i.p., 60 min before test
[4] = over the doses 5, 10 and 20 mg/kg i.p.

T2 sequence (O00222 34-908): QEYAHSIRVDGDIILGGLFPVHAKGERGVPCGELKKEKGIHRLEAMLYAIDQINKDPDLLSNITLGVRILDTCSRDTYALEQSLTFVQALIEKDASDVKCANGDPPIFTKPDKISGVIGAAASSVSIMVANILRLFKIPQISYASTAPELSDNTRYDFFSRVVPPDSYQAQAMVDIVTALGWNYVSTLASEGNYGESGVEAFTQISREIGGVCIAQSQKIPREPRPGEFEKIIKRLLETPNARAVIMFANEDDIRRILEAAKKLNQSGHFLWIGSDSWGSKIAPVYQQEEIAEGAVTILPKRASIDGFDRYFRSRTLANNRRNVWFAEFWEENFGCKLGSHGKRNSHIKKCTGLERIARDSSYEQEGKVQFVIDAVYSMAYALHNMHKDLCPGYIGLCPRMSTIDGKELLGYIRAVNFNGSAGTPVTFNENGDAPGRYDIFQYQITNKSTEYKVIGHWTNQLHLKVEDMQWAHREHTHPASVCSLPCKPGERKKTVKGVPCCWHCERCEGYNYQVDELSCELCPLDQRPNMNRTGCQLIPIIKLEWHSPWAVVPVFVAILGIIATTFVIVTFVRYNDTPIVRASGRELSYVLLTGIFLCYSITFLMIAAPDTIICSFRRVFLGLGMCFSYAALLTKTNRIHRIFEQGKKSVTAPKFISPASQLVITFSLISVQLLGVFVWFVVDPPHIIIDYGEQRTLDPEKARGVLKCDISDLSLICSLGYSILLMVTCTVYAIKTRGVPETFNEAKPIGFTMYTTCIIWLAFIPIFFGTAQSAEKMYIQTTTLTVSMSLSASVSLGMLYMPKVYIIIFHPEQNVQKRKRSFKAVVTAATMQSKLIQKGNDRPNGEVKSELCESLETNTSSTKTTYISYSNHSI
T1 sequence (Q14833 33-912): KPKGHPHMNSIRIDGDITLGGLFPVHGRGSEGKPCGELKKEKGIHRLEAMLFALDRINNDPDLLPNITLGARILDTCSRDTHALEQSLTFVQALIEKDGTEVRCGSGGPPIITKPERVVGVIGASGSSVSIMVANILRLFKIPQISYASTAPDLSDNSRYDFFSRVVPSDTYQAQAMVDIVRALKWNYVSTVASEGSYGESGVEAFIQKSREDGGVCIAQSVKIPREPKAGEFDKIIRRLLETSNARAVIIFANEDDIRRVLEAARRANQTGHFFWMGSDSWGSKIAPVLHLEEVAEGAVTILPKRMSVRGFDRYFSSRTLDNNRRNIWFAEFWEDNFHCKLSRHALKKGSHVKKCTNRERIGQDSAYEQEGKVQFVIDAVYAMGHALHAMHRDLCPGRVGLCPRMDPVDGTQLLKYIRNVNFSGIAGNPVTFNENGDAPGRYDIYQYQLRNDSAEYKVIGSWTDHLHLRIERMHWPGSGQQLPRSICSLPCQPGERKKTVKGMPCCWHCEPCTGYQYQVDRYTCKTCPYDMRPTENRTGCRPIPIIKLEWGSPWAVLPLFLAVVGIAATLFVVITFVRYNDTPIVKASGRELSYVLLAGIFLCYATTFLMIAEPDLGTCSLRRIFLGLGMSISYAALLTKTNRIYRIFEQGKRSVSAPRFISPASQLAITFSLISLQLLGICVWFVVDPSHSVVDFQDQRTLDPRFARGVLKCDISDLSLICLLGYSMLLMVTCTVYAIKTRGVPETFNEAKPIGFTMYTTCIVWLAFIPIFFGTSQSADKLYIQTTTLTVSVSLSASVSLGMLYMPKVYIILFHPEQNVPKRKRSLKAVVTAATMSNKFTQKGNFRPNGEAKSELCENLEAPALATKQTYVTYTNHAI

Q: Which EC50 (mGlu4 receptor) does the source give for COc1cc(NC(=O)c2ccccn2)ccc1-c1noc(-c2ccccc2Cl)n1 [Compound 34] here?
A: The EC50 was 1110 nM.

Q: And the “effect on SIH response” value (Albino Swiss mice; [1])?
A: Its value is “not effective”.

Q: What about the “effect on SIH response” value (Albino Swiss mice; [2]) of the same compound?
A: Its value is “effective; also recorded: statistically significant reduction in SIH”.

Q: What about the “effect on SIH response” value (Albino Swiss mice; [3]) of the same compound?
A: The value was “effective; also recorded: statistically significant reduction in SIH”.

Q: And the “effect on SIH response” value (Albino Swiss mice; [4])?
A: Its value is “significant anxiolytic- and antipsychotic-like properties”.

Q: What about the “agonistic activity at mGlu8 receptor” value (mGlu8 receptor) of the same compound?
A: The value was “direct agonistic activity”.

Q: For COc1cc(NC(=O)c2ccccn2)ccc1-c1noc(-c2ccccc2F)n1 [Compound 37], which EC50 (mGlu4 receptor) is on record?
A: The EC50 was 3940 nM.

Q: And the “effect on SIH response” value (Albino Swiss mice; [2])?
A: Its value is “effective; also recorded: weak activity”.

Q: What about the “effect on SIH response” value (Albino Swiss mice; [4]) of the same compound?
A: The value was “significant anxiolytic- and antipsychotic-like properties”.

Q: And the “agonistic activity at mGlu8 receptor” value (mGlu8 receptor)?
A: The value was “direct agonistic activity”.

Q: What does the source list for O=C(Nc1ccc(-c2noc(-c3ccccc3Cl)n2)c(Cl)c1)c1ccccn1 [Compound 52, N-(3-chloro-4-(5-(2-chlorophenyl)-1,2,4-oxadiazol-3-yl)phenyl)picolinamide]?
A: effect on SIH response (Albino Swiss mice; [4]): significant anxiolytic- and antipsychotic-like properties; also recorded: significantly reduced SIH responses at all three doses; also recorded: at all doses significantly reduced the SIH response; agonistic activity at mGlu8 receptor (mGlu8 receptor): direct agonistic activity

Q: For O=C(Nc1ccc(-c2noc(-c3ccccc3Cl)n2)c(C(F)(F)F)c1)c1ccccn1 [Compound 60], which “effect on SIH response” value (Albino Swiss mice; [1]) is on record?
A: The value was “reduced the temperature increase caused by stress”.

Q: What about the “effect on SIH response” value (Albino Swiss mice; [3]) of the same compound?
A: Its value is “reduced the temperature increase caused by stress”.

Q: What about the “effect on SIH response” value (Albino Swiss mice; [4]) of the same compound?
A: The value was “significant anxiolytic- and antipsychotic-like properties”.

Q: What about the “agonistic activity at mGlu8 receptor” value (mGlu8 receptor) of the same compound?
A: Its value is “direct agonistic activity”.
